Data taken from patent US20230031406A1, “COMPOUNDS AND COMPOSITIONS FOR TREATING CONDITIONS ASSOCIATED WITH NLRP ACTIVITY” (Novartis AG, priority 2018, published 2023).

Tested on: PMA-differentiated THP-1 cells
Assay: IL-1β production in PMA-differentiated THP-1 cells stimulated with gramicidin (hTHP-1 assay containing 2% fetal bovine serum; Procedures 1 and 2)
Assay type: cell-based, human
Conditions: Homo sapiens, THP-1, Table B1; 2% fetal bovine serum; class symbols; read-out: Average IC50 of compounds in hTHP-1 assay: hTHP-1 IC50
In short: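 Compound titrations in 0.37% final DMSO were added to THP-1 cells that had been plated after 16-18 h PMA treatment, 50,000 per well in 2% FBS. One hour later the cells received gramicidin (5 μM, 2 h) and were centrifuged. HTRF detected IL-1β in the collected supernatants.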

Compound | IC50
CC(C)c1csc(S(N)(=O)=NC(=O)Nc2c3c(nc4c2CCC4)CCC3)c1 (single isomer, unassigned) [Compound 173a, (R) or (S)-N′-((1,2,3,5,6,7-hexahydrodicyclo-penta[b,e]pyridin-8-yl)carbamoyl)-4-isopropylthiophene-2-sulfonimidamide] | 0.2 to 1 µM
NS(=O)(=NC(=O)Nc1c2c(nc3c1CCC31CC1)CCC2)c1ccn(C(F)F)n1 (single isomer, unassigned) [Compound 180a, (R) or (S)-1-(difluoromethyl)-N′-((1′,5′,6′,7′-tetrahydro-2′H-spiro[cyclopropane-1,3′-dicyclopenta[b,e]pyridin]-8′-yl)carbamoyl)-1H-pyrazole-3-sulfonimidamide] | 0.2 to 1 µM

Same assay, conditions: Homo sapiens, THP-1, Table B1; 2% fetal bovine serum; numeric bounds; read-out: Average IC50 of compounds in hTHP-1 assay: hTHP-1 IC50

Compound | IC50
CC(C)c1csc(S(N)(=O)=NC(=O)Nc2c3c(nc4c2CCC4)CCC3)c1 (single isomer, unassigned) [Compound 173b, (S) or (R)-N′-((1,2,3,5,6,7-hexahydrodicyclo-penta[b,e]pyridin-8-yl)carbamoyl)-4-isopropylthiophene-2-sulfonimidamide] | > 20 µM
NS(=O)(=NC(=O)Nc1c2c(nc3c1CCC31CC1)CCC2)c1ccn(C(F)F)n1 (single isomer, unassigned) [Compound 180b, (S) or (R)-1-(difluoromethyl)-N′-((1′,5′,6′,7′-tetrahydro-2′H-spiro[cyclopropane-1,3′-dicyclopenta[b,e]pryidin]-8′-yl)carbamoyl)-1H-pyrazole-3-sulfonimidamide] | > 30 µM

Same assay, conditions: Homo sapiens, THP-1, Table B2; 2% fetal bovine serum; class symbols; read-out: hTHP-1 IC50

Compound | IC50
CC(C)(O)c1csc(S(N)(=O)=NC(=O)Nc2cc(C3CC3)nc3c2CCC3)c1 (single isomer, unassigned) [Compound 176b, (R) or (S)-N′-((2-cyclopropyl-6,7-dihydro-5H-cyclopenta[b]pyridin-4-yl)carbamoyl)-4-(2-hydroxypropan-2-yl)thiophene-2-sulfonimidamide] | 1 to 5 µM

Same assay, conditions: Homo sapiens, THP-1, Table B2; 2% fetal bovine serum; numeric bounds; read-out: hTHP-1 IC50

Compound | IC50
CC1CCc2c1nc1c(c2NC(=O)N=S(N)(=O)c2cnn(C(C)C)c2)CCC1 (single isomer, unassigned) [Compound 171a, (S, R) and (S, S) or (R, S) and (R, R)-1-Isopropyl-N′-((3-methyl-1,2,3,5,6,7-hexahydrodicyclopenta [b,e]pyridin-8-yl)carbamoyl)-1H-pyrazole-4-sulfonimidamide] | > 30 µM
CC(C)(O)c1csc(S(N)(=O)=NC(=O)Nc2cc(C3CC3)nc3c2CCC3)c1 (single isomer, unassigned) [Compound 176a, (S) or (R)-N′-((2-cyclopropyl-6,7-dihydro-5H-cyclopenta[b]pyridin-4-yl)carbamoyl)-4-(2-hydroxypropan-2-yl)thiophene-2-sulfonimidamide] | > 30 µM
CC(C)c1cc(NC(=O)N=S(N)(=O)c2cc(C(C)(C)O)cs2)c2c(n1)CCC2 (single isomer, unassigned) [Compound 182a, (S) or (R)-4-(2-Hydroxypropan-2-yl)-N′-((2-isopropyl-6,7-dihydro-5H-cyclopenta[b]pyridin-4-yl)carbamoyl) thiophene-2-sulfonimidamide] | > 30 µM

Same assay, conditions: Table B1; 2% fetal bovine serum; class symbols; read-out: Average IC50 of compounds in hTHP-1 assay: hTHP-1 IC50

Compound | IC50
CC1CCc2c1nc1c(c2NC(=O)N=S(N)(=O)c2sc(C(C)(C)O)nc2CO)CCC1 (single isomer, unassigned) [Compound 168bb, (R,R) or (R,S)-4-(hydroxymethyl)-2-(2-hydroxypropan-2-yl)-N′-((3-methyl-1,2,3,5,6,7-hexahydrodicyclo-penta[b,c]pyridin-8-yl)carbamoyl)thiazole-5-sulfonimidamide] | 1 to 5 µM
Cc1sc(S(N)(=O)=NC(=O)Nc2c3c(nc4c2CCC4(C)C)CCC3)cc1C(C)(C)O (single isomer, unassigned) [Compound 169a, (S) or (R)-N′-((3,3-dimethyl-1,2,3,5,6,7-hexahydro-dicyclopenta[b,e]pyridin-8-yl)carbamoyl)-4-(2-hydroxypropan-2-yl)-5-methylthiophene-2-sulfonimidamide] | 5 to 30 µM
Cc1sc(S(N)(=O)=NC(=O)Nc2c3c(nc4c2CCC4(C)C)CCC3)cc1C(C)(C)O (single isomer, unassigned) [Compound 169b, (R) or (S)-N′-((3,3-dimethyl-1,2,3,5,6,7-hexahydro-dicyclopenta[b,e]pyridin-8-yl)carbamoyl)-4-(2-hydroxypropan-2-yl)-5-mehtylthiophene-2-sulfonimidamide] | 0.04 to 0.2 µM
CC(C)n1ccc(S(N)(=O)=NC(=O)Nc2c3c(nc4c2CCC42CC2)CCC3)n1 (single isomer, unassigned) [Compound 172a, (S) or (R)-1-Isopropyl-N′-((1′,5′,6′,7′-tetrahydro-2′H-spiro[cyclopropane-1,3′-dicyclopenta[b,e]pyridin]-8′-yl)carbamoyl)-1H-pyrazole-3-sulfonimidamide] | 5 to 30 µM
CC(C)n1ccc(S(N)(=O)=NC(=O)Nc2c3c(nc4c2CCC42CC2)CCC3)n1 (single isomer, unassigned) [Compound 172b, (R) or (S)-1-Isopropyl-N′-((1′,5′,6′,7′-tetrahydro-2′H-spiro[cyclopropane-1,3′-dicyclopenta[b,e]pyridin]-8′-yl)carbamoyl)-1H-pyrazole-3-sulfonimidamide] | 0.2 to 1 µM
Cc1c(C2CC2)nc2c(c1NC(=O)N=S(N)(=O)c1sc(C(C)(C)O)cc1F)CCC2 (single isomer, unassigned) [Compound 174a, (R) or (S)-N′-((2-cyclopropyl-3-methyl-6,7-dihydro-5H-cyclopenta[b]pyridin-4-yl)carbamoyl)-3-fluoro-5-(2-hydroxypropan-2-yl)thio-phene-2-sulfonimidamide] | 5 to 30 µM
Cc1c(C2CC2)nc2c(c1NC(=O)N=S(N)(=O)c1sc(C(C)(C)O)cc1F)CCC2 (single isomer, unassigned) [Compound 174b, (S) or (R)-N′-((2-cyclopropyl-3-methyl-6,7-dihydro-5H-cyclopenta[b]pyridin-4-yl)carbamoyl)-3-fluoro-5-(2-hydroxypropan-2-yl)thiophene-2-sulfonimidamide] | 0.04 to 0.2 µM
Cc1c(C2CC2)nc2c(c1NC(=O)N=S(N)(=O)c1cc(C(C)(C)O)cs1)CCC2 (single isomer, unassigned) [Compound 175a, (R) or (S)-N′-((2-cyclopropyl-3-methyl-6,7-dihydro-5H-cyclopenta[b]pyridin-4-yl)carbamoyl)-4-(2-hydroxypropan-2-yl)thiophene-2-sulfonimidamide] | 5 to 30 µM
Cc1c(C2CC2)nc2c(c1NC(=O)N=S(N)(=O)c1cc(C(C)(C)O)cs1)CCC2 (single isomer, unassigned) [Compound 175b, (S) or (R)-N′-((2-cyclopropyl-3-methyl-6,7-dihydro-5H-cyclopenta[b]pyridin-4-yl)carbamoyl)-4-(2-hydroxy-propan-2-yl)thiophene-2-sulfonimidamide] | 0.2 to 1 µM

Same assay, conditions: Table B2; 2% fetal bovine serum; class symbols; read-out: hTHP-1 IC50

Compound | IC50
COCc1nc(C(C)(C)O)sc1S(N)(=O)=NC(=O)Nc1c2c(nc3c1CCC3(C)C)CCC2 (single isomer, unassigned) [Compound 170a] | 0.2 to 1 µM
COCc1nc(C(C)(C)O)sc1S(N)(=O)=NC(=O)Nc1c2c(nc3c1CCC3(C)C)CCC2 (single isomer, unassigned) [Compound 170b, (S) or (R)-N′-((3,3-dimethyl-1,2,3,5,6,7-hexahydrodicyclopenta [b,e]pyridin-8-yl)carbamoyl)-2-(2-hydroxypropan-2-yl)-4-(methoxymethyl) thiazole-5-sulfonimidamide] | 5 to 30 µM
CC1CCc2c1nc1c(c2NC(=O)N=S(N)(=O)c2cnn(C(C)C)c2)CCC1 (single isomer, unassigned) [Compound 171b, (R, S) and (R, R) or (S, R) and (S, S)-1-Isopropyl-N′-((3-methyl-1,2,3,5,6,7-hexahydrodicyclopenta [b,e]pyridin-8-yl)carbamoyl)-1H-pyrazole-4-sulfonimidamide] | 5 to 30 µM
CC1CCc2c1nc1c(c2NC(=O)N=S(N)(=O)c2cnn(C(C)C)c2)CCC1 (single isomer, unassigned) [Compound 171c, (R, R) and (R, S) or (S, R) and (S, S)-1-Isopropyl-N′-((3-methyl-1,2,3,5,6,7-hexahydrodicyclopenta [b,e]pyridin-8-yl)carbamoyl)-1H-pyrazole-4-sulfonimidamide] | 1 to 5 µM

Further lines, results first:

IC50 | Compound
1 to 5 µM | CCc1c(C2CC2)nc2c(c1NC(=O)N=S(N)(=O)c1cc(C(C)(C)O)cs1)CCC2 (single isomer, unassigned) [Compound 181a, (S) or (R)-N′-((2-cyclopropyl-3-ethyl-6,7-dihydro-5H-cyclopenta[b]pyridin-4-yl)carbamoyl)-4-(2-hydroxypropan-2-yl)thiophene-2-sulfonimidamide]
0.04 to 0.2 µM | CCc1c(C2CC2)nc2c(c1NC(=O)N=S(N)(=O)c1cc(C(C)(C)O)cs1)CCC2 (single isomer, unassigned) [Compound 181b, (R) or (S)-N′((2-cyclopropyl-3-ethyl-6,7-dihydro-5H-cyclopenta[b]pyridin-4-yl)carbamoyl)-4-(2-hydroxypropan-2-yl)thiophene-2-sulfonimidamide]

Same assay, conditions: Table B2; 2% fetal bovine serum; numeric bounds; read-out: hTHP-1 IC50

Compound | IC50
CC1CCc2c1nc1c(c2NC(=O)N=S(N)(=O)c2cnn(C(C)C)c2)CCC1 (single isomer, unassigned) [Compound 171d, (S, S) and (S, R) or (R, S) and (R, R)-1-Isopropyl-N′-((3-methyl-1,2,3,5,6,7-hexahydrodicyclopenta [b,e]pyridin-8-yl)carbamoyl)-1H-pyrazole-4-sulfonimidamide] | > 30 µM
